Test results: patent publication US8946446B2, “Pyrrolo sulfonamide compounds for modulation of orphan nuclear receptor RAR-related orphan receptor-γ (ROR-γ, NR1F3) activity and for the treatment of chronic inflammatory and autoimmune diseases” (Phenex Pharmaceuticals AG, priority 2011, dated 2015)

What follows are compounds tested against T1, RORγ ligand binding domain (LBD) (Homo sapiens, UniProt P51449) (assay: TR-FRET Activity Assay (ligand sensing, RORγ-LBD / coactivator peptide interaction)). Details: not given.
T1 construct: made in house; host or cells: E. coli BL-21 (BL3), vector pDEST15
T1 sequence (P51449 269-508 limits assumed): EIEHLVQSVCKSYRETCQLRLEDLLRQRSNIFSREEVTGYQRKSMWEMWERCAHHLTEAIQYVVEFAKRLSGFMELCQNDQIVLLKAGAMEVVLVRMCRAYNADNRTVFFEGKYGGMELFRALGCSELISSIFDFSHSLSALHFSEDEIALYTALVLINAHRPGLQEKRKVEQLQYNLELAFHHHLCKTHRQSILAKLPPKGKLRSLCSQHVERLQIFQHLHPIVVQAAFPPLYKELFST
Assay type: biochemical
From the text: This method measures the ability of putative ligands to modulate the interaction between the purified bacterial expressed RORγ ligand binding domain (LBD) and synthetic N-terminally biotinylated peptides which are derived from nuclear receptor coactivator proteins such as but not limited to SRC1 (NcoA1), SRC2 (NcoA2, TIF2), SRC3 (NcoA3), PGC1α, PGC1β, CBP, GRIP1, TRAP220, RIP140.
The ligand-binding domain (LBD) of RORγ was expressed as fusion protein with GST in […] cells using the vector pDEST15. Cells were lysed by lysozyme-treatment and sonication, and the fusion proteins purified over glutathione sepharose (Pharmacia) according to the manufacturers instructions. For screening of compounds for their influence on the RORγ-peptide interaction, the LANCE technology (Perkin Elmer) was applied. This method relies on the binding dependent energy transfer from a donor to an acceptor fluorophor attached to the binding partner of interest. For ease of handling and reduction of background from compound fluorescence LANCE technology makes use of generic fluorophore labels and time resolved detection assays were done in a final volume of 25 μL in a 384 well plate, in a Tris-based buffer system (20 mM Tris-HCl pH6.8; 60 mM KCl, 1 mM DTT; 5 mM MgCl2; 35 ng/μL BSA), containing 20-60 ng/well recombinantly expressed RORγ-LBD fused to GST, 200-600 nM N-terminally biotinylated peptide, 200 ng/well Streptavidin-xIAPC conjugate (Prozyme) and 6-10 ng/well Eu W1024-antiGST (Perkin Elmer). DMSO content of the samples was kept at 1%.
After generation of the Tris-based buffer system, the potentially RORγ modulating ligands were diluted. […] The LANCE signal was detected by a Perkin Elmer EnVision™ Multilabel Counter. The results were visualized by plotting the ratio between the emitted light at 665 nm and 615 nm. […] Ligands that promote the complex formation induce a concentration-dependent increase in time-resolved fluorescent signal.
The normalised TR-FRET assay values, using the following equation: 1000*665 nm measurement value/615 nm measurement value, were transferred to the program GraphPad Prism to generate graphs and dose response curves using the following equation:
Equation: Sigmoidal Dose-Response (Variable Slope) Y=Bottom+(Top-Bottom)/(1+10^((LogEC50−X)*HillSlope)) X is the logarithm of the concentration. Y is the response. Y starts at Bottom and goes to Top with a sigmoidal shape.
This is identical to the “four parameter logistic equation”. The IC50 values are calculated using this equation.

Compound	IC50
Cc1c(S(N)(=O)=O)cc(-c2cc3c(c(C(C)(C)C)c2)OCC(=O)N3C(C)C)n1CC1CCCCC1 [12/10]	500 to 2000 nM
COCCNS(=O)(=O)c1cc(-c2cc(C(C)(C)C)cc(C(C)(C)C)c2)n(CC2CCCCC2)c1C [Example 2/1]	< 500 nM
Cc1c(S(N)(=O)=O)cc(-c2cc(C(C)(C)C)cc(C(C)(C)CO)c2)n1CC1CCCCC1 [Example 50]	> 2000 nM
Cc1c(S(=O)(=O)NCC(C)(C)O)cc(-c2cc(C(C)(C)C)cc(C(C)(C)C)c2)n1CC1CCCCC1 [2/5]	< 500 nM

Same assay, conditions: read-out: RORγ activity in the TR-FRET Activity Assay (IC50 FRET), Group

Compound	IC50
Cc1c(S(N)(=O)=O)cc(C2=CC(S(=O)(=O)c3ccc(Cl)cc3)c3ccccc32)n1CC1CCCCC1 (stereo not shown) [53/2]	500 to 2000 nM
Cc1c(S(N)(=O)=O)cc(-c2cc(C(C)(C)C)cc(C(C)(C)C)c2)n1CC1CCCCCC1 [1/37]	< 500 nM
Cc1c(S(N)(=O)=O)cc(-c2ccc(S(=O)(=O)N(C)C(C)(C)C)c(C(C)(C)C)c2)n1CC1CCCCC1 [22/2]	< 500 nM
Cc1c(S(N)(=O)=O)cc(-c2cc(C(C)(C)C)nc(C(C)(C)C)c2)n1CC1CCCCC1 [Example 18, 1-(Cyclohexylmethyl)-5-(2,6-di-tert-butylpyridin-4-yl)-2-methyl-1H-pyrrole-3-sulfonamide]	< 500 nM
Cc1c(S(=O)(=O)NCCC(=O)O)cc(-c2cc(C(C)(C)C)cc(C(C)(C)C)c2)n1CC1CCCCC1 [Example 39, 3-(1-(Cyclohexylmethyl)-5-(3,5-di-tert-butylphenyl)-2-methyl-1H-pyrrole-3-sulfonamido)propanoic acid]	500 to 2000 nM
Cc1c(S(N)(=O)=O)cc(-c2cc(C(C)(C)C)c(C#N)c(C(C)(C)C)c2)n1CC1CCCCC1 [Example 9, 1-(Cyclohexylmethyl)-5-(3,5-di-tert-butyl-4-cyanophenyl)-2-methyl-1H-pyrrole-3-sulfonamide]	< 500 nM
Cc1c(S(N)(=O)=O)cc(-c2cc(C(F)(F)F)c3ncccc3c2)n1CC1CCCCC1 [1/16]	> 2000 nM
CC(C)(C)c1cc(-c2cc(S(N)(=O)=O)c(Br)n2CC2CCCCC2)cc(C(C)(C)C)c1 [Example 31, 2-Bromo-1-(cyclohexylmethyl)-5-(3,5-di-tert-butylphenyl)-1H-pyrrole-3-sulfonamide]	< 500 nM
Cc1ccc2c(-c3cc(S(N)(=O)=O)c(C)n3CC3CCCCC3)cn(S(=O)(=O)N3CCCCC3)c2c1 [1/35]	< 500 nM
Cc1c(S(N)(=O)=O)cc(-c2cc(OC(C)C)cc(C(C)(C)C)c2)n1CC1CCCCC1 [16/2]	500 to 2000 nM
CC(C)(C)c1cc(-c2c(Br)c(S(N)(=O)=O)c(Br)n2CC2CCCCC2)cc(C(C)(C)C)c1 [Example 32, 2,4-Dibromo-1-(cyclohexylmethyl)-5-(3,5-di-tert-butylphenyl)-1H-pyrrole-3-sulfonamide]	500 to 2000 nM
Cc1c(S(N)(=O)=O)cc(-c2cn(S(=O)(=O)N3CCCCC3)c3ccccc23)n1CC1CCCCC1 [1/33]	500 to 2000 nM
Cc1c(S(N)(=O)=O)cc(-c2cc(C(C)(C)C)cc(C3(C)CC3)c2)n1CC1CCCCC1 [12/33]	< 500 nM
Cc1c(S(N)(=O)=O)cc(-c2ccc(S(=O)(=O)NC(C)(C)CCO)c(C(F)(F)F)c2)n1CC1CCCCC1 [12/31]	500 to 2000 nM
Cc1c(S(N)(=O)=O)cc(-c2ccc(S(=O)(=O)NC(C)(C)C)c(C3(C)CC3)c2)n1CC1CCCCC1 [22/18]	< 500 nM
Cc1c(S(=O)(=O)NCC(=O)O)cc(-c2cc(C(C)(C)C)cc(C(C)(C)C)c2)n1CC1CCCCC1 [Example 43, 2(1-(Cyclohexylmethyl)-5(3,5-di-tert-butylphenyl)-2-methyl-1H-pyrrole-3-sulfonamido)acetic acid]	> 2000 nM
Cc1c(S(N)(=O)=O)cc(-c2cn(S(=O)(=O)c3ccccc3Cl)c3ccccc23)n1CC1CCCCC1 [Example 53, 5-(1-((2-Chlorophenyl)sulfonyl)-1H-indol-3-yl)-1-(cyclohexylmethyl)-2-methyl-1H-pyrrole-3-sulfonamide]	500 to 2000 nM
Cc1c(S(N)(=O)=O)cc(-c2c(C)n(S(=O)(=O)N3CCCCC3)c3ccccc23)n1CC1CCCCC1 [1/36]	> 2000 nM
